Measured values published in patent US6600047B2, “Process for making amlodipine maleate” (Synthon BV, priority 2001, dated 2003).

- melting point: 178 to 183 °C (dec.)
Structure (SMILES): CCOC(=O)C1=C(COCCNC(CC(=O)O)C(=O)O)NC(C)=C(C(=O)OC)C1c1ccccc1Cl (stereo not shown) [formula (1)]
